ChEMBL document CHEMBL1122930, “Synthesis and pharmacological characterization of 5-(2-dodecylphenyl)-4,6-dithianonanedioic acid and 5-[2-(8-phenyloctyl)phenyl]-4,6-dithianonanedioic acid: prototypes of a novel class of leukotriene antagonists” (J Med Chem, 1985)
Counter-ions that a name gives are not always drawn.

Experiments:
[1] = biological target: T1, Cysteinyl leukotriene receptor 1 (Cavia porcellus, UniProt Q2NNR5); test: Binding constant was determined as affinity to displace [3H]LTD4 from Cysteinyl leukotriene D4 receptor on guinea pig lung membrane; format: tissue-based
T1 sequence (Q2NNR5 whole entry): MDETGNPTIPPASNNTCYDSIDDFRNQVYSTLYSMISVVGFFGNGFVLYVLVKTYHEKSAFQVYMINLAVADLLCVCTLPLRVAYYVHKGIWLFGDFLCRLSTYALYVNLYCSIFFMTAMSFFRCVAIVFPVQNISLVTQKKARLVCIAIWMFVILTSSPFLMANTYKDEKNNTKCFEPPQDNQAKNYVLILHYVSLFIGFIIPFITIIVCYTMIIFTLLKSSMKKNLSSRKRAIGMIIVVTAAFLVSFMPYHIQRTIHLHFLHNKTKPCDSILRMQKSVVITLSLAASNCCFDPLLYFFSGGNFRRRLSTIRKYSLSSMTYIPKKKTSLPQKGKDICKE

[2] = tested on: Cavia porcellus; test: Antagonistic effect on LTD4 induced change in lung compliance (CDYN) in anesthetized guinea pig, at dose 5 ug/kg, administered intravenously; format: functional; conditions: iv
[3] = tested on: Cavia porcellus; test: Antagonistic effect on LTD4 induced change in air way resistance (RL) in anesthetized guinea pigs, at dose 5 ug/kg, administered intravenously; format: functional; conditions: iv
[4] = biological target: T2, Cysteinyl leukotriene receptor 1 (Cavia porcellus) (UniProt Q2NNR5); test: Dissociation constant towards Cysteinyl leukotriene D4 receptor of guinea pig
T2 sequence (whole entry): T1 sequence (Q2NNR5 whole entry)

[5] = biological target: T2, Cysteinyl leukotriene receptor 1 (Cavia porcellus)
[6] = tested on: Cavia porcellus; test: Antagonistic effect on LTD4 induced changes in dynamic lung compliance (CDYN) in anesthetized guinea pigs, at dose 5 mg/kg when administered intravenously; format: functional; conditions: route intravenous
[7] = tested on: Cavia porcellus; test: Antagonistic effect on LTD4 induced change in airway resistance (RL) in anesthetized guinea pigs, at dose 5 mg/kg when administered intravenously; format: functional; conditions: route intravenous
[8] = tested on: Cavia porcellus; test: Antagonistic effect on LTD4 induced change in lung compliance (CDYN) in anesthetized guinea pigs, at dose 5 ug/kg, administered intravenously; format: functional; conditions: iv
[9] = biological target: T2, Cysteinyl leukotriene receptor 1 (Cavia porcellus); remark: listed apart in the source

Row | Compound | Ki [1] [nM] | inhibition in vivo at 0.005 mg/kg [2] [%] | inhibition in vivo at 0.005 mg/kg [3] [%] | -Log K B [4] | -Log K B [5] | inhibition in vivo at 5 mg/kg [6] [%] | inhibition in vivo at 5 mg/kg [7] [%] | inhibition in vivo at 0.005 mg/kg [8] [%] | -Log K B [9]
1 | CCCCCCCCCCCCc1ccccc1C(SCCC(=O)O)SCCC(=O)O | 445 | 83 | 97 | 6 |  |  |  |  | 
2 | CCCc1c(OCC(O)COc2ccc3c(=O)cc(C(=O)O)oc3c2CCC)ccc(C(C)=O)c1O (stereo unspecified) [FPL-55712 SODIUM SALT] |  |  |  |  | 6.8 | 97 | 97 |  | 
3 | O=C(O)CCSC(SCCC(=O)O)c1ccccc1CCCCCCCCc1ccccc1 | 245 |  | 100 |  |  |  |  | 95 | 6.7
